Data reported in patent US20240025906A1 (NEURON23, INC., priority 2022, published 2024).

How the values were obtained:
TYK2 JH2 = target: T1, TYK2 JH2 (Homo sapiens, UniProt P29597); assay: TYK2 JH2 binding assay (KINOMEscan KdELECT competitive binding); conditions: TYK2 JH2 domain, KINOMEscan KdELECT (Assay A); read-out: Biochemical TYK2_DiscoverX_JH2_BND_Kd
T1 construct: purchased DiscoverX (KINOMEscan KdELECT service); host or cells: E. coli BL21-derived (T7 phage display) or HEK-293
Outline: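 Test compounds were titrated in 11 three-fold steps against JH2 fragment captured on ligand-loaded magnetic beads, with 1 h incubation at room temperature and DMSO at 0.9%. Eluted kinase was quantified by qPCR, and Kd was fitted from the dose series.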

[1] = test system: JAK1/TYK2 pSTAT5 (Tyr694/699) in THP-1 cell line; assay: IFNa-stimulated JAK1/TYK2 pSTAT5 (Tyr694/699) inhibition cellular assay, AlphaLISA; assay type: cell-based; conditions: Homo sapiens; THP-1 cells, IFNa-stimulated pSTAT5 (Tyr694/699), AlphaLISA (Assay B); read-out: Cellular_THP1_IFNa-pSTATS_TYK2
Outline: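 Compound dilutions were dispensed first, and HBSS-suspended THP-1 cells were added on top (final top concentration 10000 nM, 6-fold series). After 1 h at 37 °C, IFNa (100 ng/mL as added) was applied for 30 min. Cells were then lysed and pSTAT5 was quantified by AlphaLISA.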

T1 sequence (P29597 589-875 limits assumed): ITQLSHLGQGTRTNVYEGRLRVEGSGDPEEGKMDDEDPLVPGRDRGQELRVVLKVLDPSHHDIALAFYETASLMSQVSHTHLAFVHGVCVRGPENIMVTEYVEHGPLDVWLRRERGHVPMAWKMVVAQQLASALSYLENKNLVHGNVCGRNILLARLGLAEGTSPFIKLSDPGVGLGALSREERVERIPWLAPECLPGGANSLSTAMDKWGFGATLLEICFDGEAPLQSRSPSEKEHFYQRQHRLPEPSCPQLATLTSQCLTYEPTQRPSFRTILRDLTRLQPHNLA

Kd (TYK2 JH2) [nM]	IC50 [1] [nM]	Structure (SMILES)
≤ 100	≤ 500	CNc1ncc(-c2nc3cc(N4CCO[C@H](C(F)F)C4)ccc3o2)c2cc(NC(=O)[C@H]3C[C@H]3C)ncc12 [Example 1058]
≤ 100	≤ 500	CNc1ncc(-c2nc3cc(N4CCO[C@@H](C(F)F)C4)ccc3o2)c2cc(NC(=O)[C@H]3C[C@H]3C)ncc12 [Example 1059]
≤ 100	≤ 500	CNc1ncc(-c2nc3cc(OC)ccc3o2)c2cc(NC(=O)[C@H]3C[C@@H]3C)ncc12 [Example 1060, (1S,2S)-N-(5-(5-methoxybenzo[d]oxazol-2-yl)-8-(methylamino)-2,7-naphthyridin-3-yl)-2-methylcyclopropane-1-carboxamide]
≤ 100	≤ 500	CNc1ncc(-c2nc3cc(OC)ccc3o2)c2cc(NC(=O)[C@@H]3C[C@H]3C)ncc12 [Example 1061, (1R,2R)-N-(5-(5-methoxybenzo[d]oxazol-2-yl)-8-(methylamino)-2,7-naphthyridin-3-yl)-2-methylcyclopropane-1-carboxamide]
≤ 100	≤ 500	CNc1ncc(-c2nc3cc(N4C[C@@H](C)O[C@@H](C)C4)ccc3o2)c2cc(NC(=O)[C@@H]3C[C@@H]3F)ncc12 [Example 1062, (1S,2S)-N-[5-[5-[(2R,6S)-2,6-dimethylmorpholin-4-yl]-1,3-benzoxazol-2-yl]-8-(methylamino)-2,7-naphthyridin-3-yl]-2-fluoro-cyclopropanecarboxamide]
≤ 100	≤ 500	CNc1ncc(-c2nc3cc(N4C[C@@H](C)O[C@@H](C)C4)ccc3o2)c2cc(NC(=O)[C@H]3C[C@H]3C)ncc12 [Example 1063, (1S,2R)-N-[5-[5-[(2R,6S)-2,6-dimethylmorpholin-4-yl]-1,3-benzoxazol-2-yl]-8-(methylamino)-2,7-naphthyridin-3-yl]-2-methyl-cyclopropanecarboxamide]
≤ 100	≤ 500	CNc1ncc(-c2nc3cc(N4CCOCC4)ccc3o2)c2cc(NC(=O)C3C[C@@H]3C(F)(F)F)ncc12 (stereo partly drawn) [Example 1065, N-(8-(methylamino)-5-(5-morpholinobenzo[d]oxazol-2-yl)-2,7-naphthyridin-3-yl)-2-(trifluoromethyl)cyclopropane-1-carboxamide]
≤ 100	≤ 500	CNc1ncc(-c2nc3cc(N4C[C@H](C)O[C@@H](C)C4)ccc3o2)c2cc(NC(=O)[C@H]3C[C@H]3C)ncc12 [Example 1068, (1S,2R)-N-[5-[5-[(2S,6S)-2,6-dimethylmorpholin-4-yl]-1,3-benzoxazol-2-yl]-8-(methylamino)-2,7-naphthyridin-3-yl]-2-methyl-cyclopropanecarboxamide]
≤ 100	≤ 500	CNc1ncc(-c2nc3cc(N4C[C@@H](C)O[C@H](C)C4)ccc3o2)c2cc(NC(=O)[C@H]3C[C@H]3C)ncc12 [Example 1070, (1S,2R)-N-(5-(5-((2R,6R)-2,6-dimethylmorpholino)benzo[d]oxazol-2-yl)-8-(methylamino)-2,7-naphthyridin-3-yl)-2-methylcyclopropane-1-carboxamide]
≤ 100	≤ 500	CNc1ncc(-c2nc3ccc(N4CCOCC4)cn3n2)c2cc(NC(=O)C3CC3(F)F)ncc12 (stereo not drawn) [Example 1071, 2,2-difluoro-N-(8-(methylamino)-5-(6-morpholino-[1,2,4]triazolo[1,5-a]pyridin-2-yl)-2,7-naphthyridin-3-yl)cyclopropane-1-carboxamide]
≤ 100	≤ 500	CNc1ncc(-c2nc3ccc(N4CCOCC4)cn3n2)c2cc(NC(=O)C3(C(F)F)CC3)ncc12 [Example 1072, 1-(difluoromethyl)-N-[8-(methylamino)-5-(6-morpholino-[1,2,4]triazolo[1,5-a]pyridin-2-yl)-2,7-naphthyridin-3-yl]cyclopropanecarboxamide]
≤ 100	≤ 500	CNc1ncc(C#Cc2ccc(OCF)cc2)c2cc(NC(=O)[C@H]3C[C@H]3C)ncc12 [Example 1073, (1S,2R)-N-[5-[2-[4-(fluoromethoxy)phenyl]ethynyl]-8-(methylamino)-2,7-naphthyridin-3-yl]-2-methyl-cyclopropanecarboxamide]
≤ 100	≤ 500	CNc1ncc(C#Cc2ccc(N3CCOCC3)cc2)c2cc(NC(=O)[C@H]3C[C@H]3C)ncc12 [Example 1076, (1S,2R)-2-methyl-N-(8-(methylamino)-5-((4-morpholinophenyl)ethynyl)-2,7-naphthyridin-3-yl)cyclopropane-1-carboxamide]
≤ 100	≤ 500	CCC1CN(c2ccc3nc(-c4cnc(NC)c5cnc(NC(=O)[C@H]6C[C@H]6C)cc45)nn3c2)CCO1 (stereo partly drawn) [Example 1077, (1S,2R)-N-[5-[6-(2-ethylmorpholin-4-yl)-[1,2,4]triazolo[1,5-a]pyridin-2-yl]-8-(methylamino)-2,7-naphthyridin-3-yl]-2-methyl-cyclopropanecarboxamide]
≤ 100	≤ 500	CNc1ncc(-c2nc3ccc(N4CCO[C@@H](C)C4)cn3n2)c2cc(NC(=O)C3CC3(C)C)ncc12 (stereo partly drawn) [Example 1080, 2,2-dimethyl-N-(8-(methylamino)-5-(6-((S)-2-methylmorpholino)-[1,2,4]triazolo[1,5-a]pyridin-2-yl)-2,7-naphthyridin-3-yl)cyclopropane-1-carboxamide]
≤ 100	≤ 500	CNc1ncc(C#Cc2ccc(OC)cn2)c2cc(NC(=O)C3CCOCC3)ncc12 [Example 1081, N-[5-[2-(5-methoxy-2-pyridyl)ethynyl]-8-(methylamino)-2,7-naphthyridin-3-yl]tetrahydropyran-4-carboxamide]
≤ 100	≤ 500	CNc1ncc(C#Cc2ccc(OC)cn2)c2cc(NC(=O)N3CCOCC3)ncc12 [Example 1082, N-[5-[2-(5-methoxy-2-pyridyl)ethynyl]-8-(methylamino)-2,7-naphthyridin-3-yl]morpholine-4-carboxamide]
≤ 100	> 500	CNc1ncc(C#Cc2ccc(OC)cn2)c2cc(NC(=O)N3CC(OC)C3)ncc12 [Example 1083, 3-methoxy-N-[5-[2-(5-methoxy-2-pyridyl)ethynyl]-8-(methylamino)-2,7-naphthyridin-3-yl]azetidine-1-carboxamide]
≤ 100	> 500	CNc1ncc(C#Cc2ccc(OC)cn2)c2cc(NC(=O)C3COC3)ncc12 [Example 1084, N-[5-[2-(5-methoxy-2-pyridyl)ethynyl]-8-(methylamino)-2,7-naphthyridin-3-yl]oxetane-3-carboxamide]
≤ 100	≤ 500	CNc1ncc(-c2cn3cc(N4CCO[C@@H](C)C4)ccc3n2)c2cc(NC(=O)C3(F)CC3)ncc12 [Example 1085, 1-fluoro-N-[8-(methylamino)-5-[6-[(2S)-2-methylmorpholin-4-yl]imidazo[1,2-a]pyridin-2-yl]-2,7-naphthyridin-3-yl]cyclopropanecarboxamide]
≤ 100	≤ 500	CNc1ncc(-c2nc3cc(N(C)C(C)=O)ccc3o2)c2cc(Nc3cccc(OC)n3)ncc12 [Example 1086, N-[2-[6-[(6-methoxy-2-pyridyl)amino]-1-(methylamino)-2,7-naphthyridin-4-yl]-1,3-benzoxazol-5-yl]-N-methyl-acetamide]
≤ 100	> 500	CNc1ncc(C#Cc2ccc(OC)cn2)c2cc(Nc3cccn(-c4ccccn4)c3=O)ncc12 [Example 1087, 3-[[5-[2-(5-methoxy-2-pyridyl)ethynyl]-8-(methylamino)-2,7-naphthyridin-3-yl]amino]-1-(2-pyridyl)pyridin-2-one]
≤ 100	≤ 500	CNc1ncc(-c2nc3ccc(N4CCOCC4)cn3n2)c2cc(Nc3cc(C(C)(C)O)ccn3)ncc12 [Example 1088, 2-[2-[[8-(methylamino)-5-(6-morpholino-[1,2,4]triazolo[1,5-a]pyridin-2-yl)-2,7-naphthyridin-3-yl]amino]-4-pyridyl]propan-2-ol]
≤ 100	≤ 500	CNc1ncc(-c2nc3ccc(N4CCOCC4)cn3n2)c2cc(Nc3nccc(C(C)(C)O)c3F)ncc12 [Example 1089, 2-[3-fluoro-2-[[8-(methylamino)-5-(6-morpholino-[1,2,4]triazolo[1,5-a]pyridin-2-yl)-2,7-naphthyridin-3-yl]amino]-4-pyridyl]propan-2-ol]
≤ 100	> 500	CNc1ncc(-c2nc3ccc(N4CCOCC4)cn3n2)c2cc(Nc3ccc(C(F)(F)F)cn3)ncc12 [Example 1090, N1-methyl-4-(6-morpholino-[1,2,4]triazolo[1,5-a]pyridin-2-yl)-N6-[5-(trifluoromethyl)-2-pyridyl]-2,7-naphthyridine-1,6-diamine]
≤ 100	≤ 500	CNc1ncc(-c2nc3cc(NC(=O)C4CC4)ccc3o2)c2cc(NC(=O)C3CC3)ncc12 [Example 1091, N-(2-(6-(cyclopropanecarboxamido)-1-(methylamino)-2,7-naphthyridin-4-yl)benzo[d]oxazol-5-yl)cyclopropanecarboxamide]
≤ 100	≤ 500	CCC(=O)Nc1ccc2oc(-c3cnc(NC)c4cnc(NC(=O)C5CC5)cc34)nc2c1 [Example 1092, N-(8-(methylamino)-5-(5-propionamidobenzo[d]oxazol-2-yl)-2,7-naphthyridin-3-yl)cyclopropanecarboxamide]
